The values below come from patent US20260226085A1, “HETEROCYCLIC COMPOUNDS AS WRN INHIBITORS” (Synnovation Therapeutics, Inc., priority 2023, published 2026).

The test concerns SW48 colorectal cancer cells. As to the kind of experiment: Cell-Titer Glo measurement of growth-inhibitory activity in SW48 cells. As to conditions: Homo sapiens, 120 h, cell viability on day 5, Cell-titer Glo, baseline subtracted, 4PL fit, read-out: SW48_GI50. The format is cell-based. Here is the method:
Example A. Cell-Titer Glo Measurement of Growth-Inhibitory Activity in SW48 Cells
This cell-based assay measures growth-inhibitory activity of selected WRN inhibitors in SW48 colorectal cancer cells. SW48 cell line (#CCL-231) was purchased from American type culture collection (ATCC). Cells were cultured following ATCC instructions. The base medium for this cell line is ATCC-formulated Leibovitz's L-15 Medium (#30-2008). To prepare complete medium, fetal bovine serum was added at a final concentration of 10%. Antibiotics including penicillin and streptomycin (#SV30010) were purchased from Cytiva and added into complete medium to prevent bacteria contamination. Cells with a passage number of below 20 were used in this cell-based assay. One day before the assay, cells were resuspended in complete medium and seeded into 96-well plates at a final density of 2000 cells per well. One extra plate was added to measure baseline viability on day 1 before compound treatment. Baseline cell viability was measured using Promega Cell-titer Glo reagent (#G7573) following the protocol provided by the manufacture. Compounds were dissolved in DMSO at a stock concentration of 10 mmol/L. Three-fold serial dilution was performed using DMSO to prepare master plates. Compounds were further diluted using complete medium and added into assay plates. The final concentration of DMSO was 0.2% in assay plates. Cell viability was measured on day 5 using Promega Cell-titer Glo reagent following the same protocol provided by the manufacture. Assay plates were kept on orbital shaker (300 rounds per min) for 2 min and then kept in 37° C. incubator for another 10 minutes. Cell-titer Glo luminescence signal was measured using i3x plate reader. Baseline cell viability was subtracted for growth inhibition 50 (GI50) estimate using GraphPad Prism following the four-parameter logistic (4PL) curve-fitting mathematical model.
As for `CCc1c(N2CCN(C(=O)c3ncc4ccccc4c3O)CC2)c(=O)n2nc(C3=CCOCC3)nc2n1CC(=O)Nc1ccc(C(F)(F)F)cc1Cl` [Example 1, N-[2-Chloro-4-(trifluoromethyl)phenyl]-2-[2-(3,6-dihydro-2H-pyran-4-yl)-5-ethyl-6-[4-(4-hydroxyisoquinoline-3-carbonyl)piperazin-1-yl]-7-oxo-[1,2,4]triazolo[1,5-a]pyrimidin-4-yl]acetamide], the GI50 was less than 100 nM.

Regarding `CCc1c(N2CCN(C(=O)c3nc4ccccc4cc3O)CC2)c(=O)n2nc(C3=CCOCC3)nc2n1CC(=O)Nc1ccc(C(F)(F)F)cc1Cl` [Example 2, N-[2-Chloro-4-(trifluoromethyl)phenyl]-2-[2-(3,6-dihydro-2H-pyran-4-yl)-5-ethyl-6-[4-(3-hydroxyquinoline-2-carbonyl)piperazin-1-yl]-7-oxo-[1,2,4]triazolo[1,5-a]pyrimidin-4-yl]acetamide], the GI50 is less than 100 nM.

For `CCc1c(N2CCN(Cc3ncccc3O)CC2)c(=O)n2nc(C3=CCOCC3)nc2n1CC(=O)Nc1ccc(C(F)(F)F)cc1Cl` [Example 4, N-[2-chloro-4-(trifluoromethyl)phenyl]-2-[2-(3,6-dihydro-2H-pyran-4-yl)-5-ethyl-6-[4-[(3-hydroxy-2-pyridyl)methyl]piperazin-1-yl]-7-oxo-[1,2,4]triazolo[1,5-a]pyrimidin-4-yl]acetamide], the GI50 lay within 100 to 1000 nM.

On to `CCc1c(N2CCN(C(=O)c3c(O)ccc4cccnc34)CC2)c(=O)n2nc(C3=CCOCC3)nc2n1CC(=O)Nc1ccc(C(F)(F)F)cc1Cl` [Example 5, N-[2-chloro-4-(trifluoromethyl)phenyl]-2-[2-(3,6-dihydro-2H-pyran-4-yl)-5-ethyl-6-[4-(7-hydroxyquinoline-8-carbonyl)piperazin-1-yl]-7-oxo-[1,2,4]triazolo[1,5-a]pyrimidin-4-yl]acetamide], for which the GI50 was less than 100 nM.

For the molecule `CCc1c(N2CCN(C(=O)c3c(O)ccc4cccnc34)CC2)c(=O)n2nc(N3CCC4(CCCO4)CC3)nc2n1CC(=O)Nc1ccc(C(F)(F)F)cc1Cl` [Example 6, N-(2-chloro-4-(trifluoromethyl)phenyl)-2-(5-ethyl-6-(4-(7-hydroxyquinoline-8-carbonyl)piperazin-1-yl)-7-oxo-2-(1-oxa-8-azaspiro[4.5]decan-8-yl)-[1,2,4]triazolo[1,5-a]pyrimidin-4(7H)-yl)acetamide], the GI50 is 100 to 1000 nM.

`CCc1c(N2CCN(Cc3ncccc3O)CC2)c(=O)n2nc(N3CCC4(CCCO4)CC3)nc2n1CC(=O)Nc1ccc(C(F)(F)F)cc1Cl` [Example 7, N-(2-chloro-4-(trifluoromethyl)phenyl)-2-(5-ethyl-6-(4-((3-hydroxypyridin-2-yl)methyl)piperazin-1-yl)-7-oxo-2-(1-oxa-8-azaspiro[4.5]decan-8-yl)-[1,2,4]triazolo[1,5-a]pyrimidin-4(7H)-yl)acetamide]: the GI50 was in the range of 1000 to 5000 nM.

On to `CCc1c(N2CCN(C(=O)c3c(O)ccc4cccnc34)CC2)c(=O)n2nc(-c3ccc(S(C)(=O)=O)cc3)nc2n1CC(=O)Nc1ccc(C(F)(F)F)cc1Cl` [Example 8, N-(2-Chloro-4-(trifluoromethyl)phenyl)-2-(5-ethyl-6-(4-(7-hydroxyquinoline-8-carbonyl)piperazin-1-yl)-2-(4-(methylsulfonyl)phenyl)-7-oxo-[1,2,4]triazolo[1,5-a]pyrimidin-4(7H)-yl)acetamide], for which the GI50 is less than 100 nM.

Turning to `CCc1c(N2CCN(Cc3ncccc3O)CC2)c(=O)n2nc(-c3ccc(S(C)(=O)=O)cc3)nc2n1CC(=O)Nc1ccc(C(F)(F)F)cc1Cl` [Example 9, N-(2-Chloro-4-(trifluoromethyl)phenyl)-2-(5-ethyl-6-(4-((3-hydroxypyridin-2-yl)methyl)piperazin-1-yl)-2-(4-(methylsulfonyl)phenyl)-7-oxo-[1,2,4]triazolo[1,5-a]pyrimidin-4(7H)-yl)acetamide], the GI50 is 100 to 1000 nM.

Regarding `CCc1c(N2CCN(Cc3ncccc3O)CC2)c(=O)n2nc(-c3ccc(P(C)(C)=O)cc3)nc2n1CC(=O)Nc1ccc(C(F)(F)F)cc1Cl` [Example 10, N-(2-Chloro-4-(trifluoromethyl)phenyl)-2-(2-(4-(dimethylphosphoryl)phenyl)-5-ethyl-6-(4-((3-hydroxypyridin-2-yl)methyl)piperazin-1-yl)-7-oxo-[1,2,4]triazolo[1,5-a]pyrimidin-4(7H)-yl)acetamide], the GI50 was less than 100 nM.
